Laboratory results published in article PMC6792352, “Limited Chemical Structural Diversity Found to Modulate Thyroid Hormone Receptor in the Tox21 Chemical Library” (Environmental Health Perspectives, 2019).
Counter-ions that a name gives are not always drawn.

Assay: in vitro
Settings: rat, gh3-tre-luc cells

| Compound | CC50 at 24 h (AC50 (uM) modified / 1000) [µM] | other results |
| --- | --- | --- |
| COc1ccc2c(c1)N(C[C@H](C)CN(C)C)c1ccccc1S2 [Methotrimeprazine maleate] | 6.79 |  |
| c1ccoc1 [Furan] | > 90 |  |
| Clc1ccc(Cn2c(CN3CCCC3)nc3ccccc32)cc1 [Clemizole hydrochloride] | > 20 |  |
| O=C(O)CCCC[C@@H]1SC[C@@H]2NC(=O)N[C@@H]21 [Biotin] | > 90 |  |
| Cl/C=C\Cl [(Z)-1,2-Dichloroethylene] |  | CC50 at 24 h (AC50 (uM) modified / 1000, Tox21_110001=Tox21_200003, viability, 1 nM T3 present, 24 h): > 90 µM |
| CN[C@@H]1[C@@H](O)[C@@H](O[C@@H]2[C@@H](O)[C@H](O[C@H]3O[C@H](CN)[C@@H](O)[C@H](O)[C@H]3O)[C@@H](N)C[C@H]2NC(=O)[C@@H](O)CN)OC[C@]1(C)O [Isepamicin sulfate] | > 50 |  |
| CNCCc1ccccn1 [Betahistine mesylate] | > 20 |  |
| NNC(=S)NN [Thiocarbazide] | > 90 |  |
| CC(=O)OC1CC(C)OC(C)O1 (stereo not shown) [Dimethoxane] | > 90 |  |
| O=C(COCCOCCOCC(=O)Nc1c(I)cc(I)c(C(=O)O)c1I)Nc1c(I)cc(I)c(C(=O)O)c1I [Biliscopin] | > 50 |  |
| CCN1CCN(c2cc3c(cc2F)c(=O)c(C(=O)O)cn3C2CC2)CC1 [Enrofloxacin] | > 50 |  |
| O=C(CO)[C@@H](O)[C@@H](O)[C@H](O)CO [D-Tagatose] | > 50 |  |
| NC(=O)CC[C@@H]1NC(=O)[C@H](Cc2ccccc2)NC(=O)[C@H](Cc2ccc(O)cc2)NC(=O)CCSSC[C@@H](C(=O)N2CCC[C@H]2C(=O)N[C@H](CCCN=C(N)N)C(=O)NCC(N)=O)NC(=O)[C@H](CC(N)=O)NC1=O [Desmopressin] | > 50 |  |
| Clc1sc(Cl)c(Cl)c1Cl [Tetrachlorothiophene] | > 90 |  |
| C=C1c2cccc(O)c2C(O)=C2C(=O)[C@]3(O)C(O)=C(C(N)=O)C(=O)[C@@H](N(C)C)[C@@H]3[C@@H](O)[C@H]12 [Methacycline hydrochloride] | > 20 |  |
| Nc1ccn([C@@H]2CS[C@H](CO)O2)c(=O)n1 [Lamivudine] | > 90 |  |
| CC(=O)Oc1ccccc1C(N)=O [Acetylsalicylamide] | > 50 |  |
| CC(C)Nc1cccnc1N1CCN(C(=O)c2cc3cc(NS(C)(=O)=O)ccc3[nH]2)CC1 [Delavirdine] | > 50 |  |
| COCCOC[C@H](CC1(C(=O)N[C@H]2CC[C@@H](C(=O)O)CC2)CCCC1)C(=O)Oc1ccc2c(c1)CCC2 [Candoxatril] | > 90 |  |
| CN1C(=O)CC(C)(c2ccccc2)C1=O (stereo not shown) [Methsuximide] | > 50 |  |

| Compound | CC50 at 24 h (AC50 (uM) modified / 1000) [µM] | other results |
| --- | --- | --- |
| O=C(O)c1ccc(Cl)cc1Cl [2,4-Dichlorobenzoic acid] | > 90 |  |
| NNCc1ccccc1 [Benzylhydrazine dihydrochloride] |  | CC50 at 24 h (AC50 (uM) modified / 1000, Tox21_110001=Tox21_200489, viability, 1 nM T3 present, 24 h): > 90 µM |
| CCCCCCCCCC(=O)N(C)C [N,N-Dimethyldecanamide] | > 90 |  |
| CC(C)C[C@H](NC(=O)CNC(=O)[C@H](Cc1ccc(O)cc1)NC(=O)[C@H](CO)NC(=O)[C@H](Cc1c[nH]c2ccccc12)NC(=O)[C@H](Cc1cnc[nH]1)NC(=O)[C@@H]1CCC(=O)N1)C(=O)N[C@@H](CCCNC(=N)N)C(=O)N1CCC[C@H]1C(=O)NCC(N)=O [Gonadorelin hydrochloride] | > 50 |  |
| CC(C)(C)C(=O)C(Cl)Cl [Dichloropinacolin] | > 90 |  |
| CCN(Cc1c(F)cccc1Cl)c1c([N+](=O)[O-])cc(C(F)(F)F)cc1[N+](=O)[O-] [Flumetralin] | > 90 |  |
| CNCC(=O)N[C@@H](CCCN=C(N)N)C(=O)N[C@H](C(=O)N[C@@H](Cc1ccc(O)cc1)C(=O)N[C@H](C(=O)N[C@@H](Cc1cnc[nH]1)C(=O)N1CCC[C@H]1C(=O)N[C@@H](C)C(=O)O)C(C)C)C(C)C [Saralasin] | > 50 |  |
| COP(N)(=S)Oc1ccccc1C(=O)OC(C)C (stereo not shown) [Isocarbophos] |  | CC50 at 24 h (AC50 (uM) modified / 1000, Tox21_110001=Tox21_301328, viability, 1 nM T3 present, 24 h): > 90 µM |
| CNC(=O)Oc1ccccc1C(=O)Nc1ccccc1 [Anilamate] |  | CC50 at 24 h (AC50 (uM) modified / 1000, Tox21_110001=Tox21_111928, viability, 1 nM T3 present, 24 h): > 50 µM |
| C=C(C)[C@H]1CC=C(C)CC1 [D-Limonene] | > 90 |  |
| Cc1c(C(=O)NN2CCCCC2)nn(-c2ccc(Cl)cc2Cl)c1-c1ccc(Cl)cc1 [Rimonabant] | 13.9 |  |
| COCCCN [3-Methoxypropylamine] | > 90 |  |
| Cc1nc(C)nc(N2C[C@@H](C)N(c3ccnc([C@@H](C)O)n3)[C@@H](C)C2)n1 [CP-642931] | > 50 |  |
| CC(C)(C)C(=O)OCC(=O)[C@H]1CC[C@H]2[C@@H]3CCC4=CC(=O)CC[C@]4(C)[C@H]3CC[C@]12C [Desoxycorticosterone pivalate] | > 50 |  |
| CC1=CC[C@H](C(C)C)C=C1 [(R)-alpha-Phellandrene] | > 90 |  |
| O=C1C=CC(=O)N1c1ccccc1 [1-Phenyl-1H-pyrrole-2,5-dione] | 5.48 |  |
| O=S1(=O)OC(c2ccc(O)cc2)(c2ccc(O)cc2)c2ccccc21 [Phenol Red sodium salt] | 46.9 |  |
| Oc1ccc(C2(c3ccc(O)cc3)CCCCC2)cc1 [Bisphenol Z] | 39.8 |  |
| Cc1c(C)n(Cc2ccccc2)c2ccc(C(=O)OCCN(C)C)cc12 [Indocate] | 8.6 |  |
| Cc1cccc(C)c1NC(=O)C(C)N (stereo not shown) [Tocainide hydrochloride] | > 20 |  |

| Compound | CC50 at 24 h (AC50 (uM) modified / 1000) [µM] | other results |
| --- | --- | --- |
| CCCCNC1CC(C)(C)NC(C)(C)C1 [N-Butyl-2,2,6,6-tetramethylpiperidin-4-amine] | > 90 |  |
| NC(=O)C(c1ccccc1)(c1ccccc1)[C@@H]1CCN(CCc2ccc3c(c2)CCO3)C1 [Darifenacin hydrobromide] | 14.7 |  |
| Cc1cccc(OCCOc2cccc(C)c2)c1 [1,1'-[Ethane-1,2-diylbis(oxy)]bis(3-methylbenzene)] | > 100 |  |
| NCCNCCNCCN [Triethylenetetramine] | > 90 |  |
| CC[C@H](C)[C@@H](C(=O)O)n1sc2ccccc2c1=O [(2S,3S)-3-Methyl-2-(3-oxo-1,2-benzothiazol-2(3H)-yl)pentanoic acid] | > 90 |  |
| C1CCN2C[C@@H]3C[C@@H](CN4CCCC[C@@H]34)[C@H]2C1 [Sparteine] | > 20 |  |
| CNC(=S)N(C)C [1,1,3-Trimethyl-2-thiourea] | > 90 |  |
| c1ccc2cc(Nc3ccc(Nc4ccc5ccccc5c4)cc3)ccc2c1 [N,N'-Di-2-naphthyl-p-phenylenediamine] | > 90 |  |
| CCC(C)Cl (stereo not shown) [2-Chlorobutane] |  | CC50 at 24 h (AC50 (uM) modified / 1000, Tox21_110001=Tox21_200404, viability, 1 nM T3 present, 24 h): > 90 µM |
| CC(C)CC(=O)C1C(=O)c2ccccc2C1=O [2-Isovaleryl-1,3-indanedione] | > 90 |  |
| CC(C)(C)CC(C)(C)c1ccc(Nc2ccc(C(C)(C)CC(C)(C)C)cc2)cc1 [4,4'-bis(1,1,3,3-Tetramethylbutyl)diphenylamine] | > 5 |  |
| Cc1ncc(CO)c(CO)c1O [Pyridoxine] | > 50 |  |
| CO/C=C(/C(=O)OC)c1ccccc1COc1cccc(C(F)(F)F)n1 [Picoxystrobin] | > 90 |  |
| CC(C)SCc1ccco1 [Furfuryl isopropyl sulfide] | > 40 |  |
| CN1c2c(nc(N)[nH]c2=O)NCC1CNc1ccc(C(=O)N[C@@H](CCC(=O)O)C(=O)O)cc1 (stereo partly shown) [Disodium 5-methyltetrahydrofolate] | > 50 |  |
| c1ccc(OCCOc2ccccc2)cc1 [1,2-Diphenoxyethane] | > 90 |  |
| CN(C)c1ccc(N(C)C)cc1 [N,N,N',N'-Tetramethyl-p-phenylenediamine] | 58.6 |  |
| Nc1nc(-c2ccccc2)cs1 [2-Amino-4-phenylthiazole hydrobromide hydrate] | > 90 |  |
